Reference: patent US20230085307A1, “PYRIDAZINONE COMPOUND AND HERBICIDE” (NISSAN CHEMICAL CORPORATION, priority 2019, published 2023)

What was measured:
windgrass [1] = experiment: Test Example 5: herbicidal effect by foliage application, plastic box (Table 20, symbol L); type: in vivo, windgrass (Apera spica-venti); conditions: foliage application, 320 g/ha, evaluated 3 weeks after application
Method in brief: (§1)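 Plants sown in sterilized diluvial soil and grown 14 days in a greenhouse at 25° C to 30° C, then sprayed on the foliage with the compound's emulsion diluted in water to a predetermined herbicide amount. Injury to weeds and crops scored three weeks after application on a visual rating scale.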

persian speedwell [2] = experiment: Test Example 5: herbicidal effect by foliage application, plastic box (Table 20, symbol R); type: in vivo, Persian speedwell (Veronica persica); conditions: foliage application, 320 g/ha
Method in brief: as §1

chickweed [3] = experiment: Test Example 4: herbicidal effect by soil treatment (Table 19, symbol P); type: in vivo, common chickweed (Stellaria media)
Method in brief: (§2)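 Seeds were sown in sterilized diluvial soil and covered with about 1.5 cm of soil. An emulsion formulation diluted with water to a predetermined herbicide amount was sprayed evenly onto the soil surface. Plants grew in a greenhouse at 25° C. to 30° C., and the effect was scored three weeks after application using criteria from an earlier test.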

redroot pigweed [4] = experiment: Test Example 4: herbicidal effect by soil treatment (Table 19, symbol N); type: in vivo, redroot pigweed (Amaranthus retroflexus)
Method in brief: as §2

rice flat sedge = experiment: Test Example 3: herbicidal effect by foliage application, Wagner pot (Table 18, symbol E); type: in vivo, rice flat sedge (Cyperus iria)
Method in brief: (§3)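 Plants were sown in alluvial soil held under 0.1–0.5 cm standing water and grown 14 days in a greenhouse at 25–30 °C. An emulsifiable formulation, water-diluted to the set dose, was then sprayed onto the foliage, and effects were scored three weeks later using previously defined criteria.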

windgrass [5] = experiment: Test Example 4: herbicidal effect by soil treatment (Table 19, symbol L); type: in vivo, windgrass (Apera spica-venti)
Method in brief: as §2

velvetleaf [6] = experiment: Test Example 4: herbicidal effect by soil treatment (Table 19, symbol M); type: in vivo, velvetleaf (Abutilon theophrasti)
Method in brief: as §2

Chinese sprangletop = experiment: Test Example 3: herbicidal effect by foliage application, Wagner pot (Table 18, symbol D); type: in vivo, chinese sprangletop (Leptochloa chinensis)
Method in brief: as §3

wild oat [7] = experiment: Test Example 5: herbicidal effect by foliage application, plastic box (Table 20, symbol I); type: in vivo, wild oat (Avena fatua); conditions: foliage application, 320 g/ha
Method in brief: as §1

chickweed [8] = experiment: Test Example 5: herbicidal effect by foliage application, plastic box (Table 20, symbol P); type: in vivo, common chickweed (Stellaria media); conditions: foliage application, 320 g/ha, evaluated 3 weeks after application
Method in brief: as §1

false cleavers = experiment: Test Example 4: herbicidal effect by soil treatment (Table 19, symbol Q); type: in vivo, false cleavers (Galium spurium)
Method in brief: as §2

lambsquarters [9] = experiment: Test Example 4: herbicidal effect by soil treatment (Table 19, symbol O); type: in vivo, lambsquarters (Chenopodium album)
Method in brief: as §2

Italian ryegrass [10] = experiment: Test Example 5: herbicidal effect by foliage application, plastic box (Table 20, symbol K); type: in vivo, Italian ryegrass (Lolium multiflorum); conditions: foliage application, 320 g/ha
Method in brief: as §1

Italian ryegrass [11] = experiment: Test Example 4: herbicidal effect by soil treatment (Table 19, symbol K); type: in vivo, Italian ryegrass (Lolium multiflorum)
Method in brief: as §2

green foxtail [12] = experiment: Test Example 4: herbicidal effect by soil treatment (Table 19, symbol G); type: in vivo, green foxtail (Setaria viridis)
Method in brief: as §2

southern crabgrass [13] = experiment: Test Example 4: herbicidal effect by soil treatment (Table 19, symbol F); type: in vivo, southern crabgrass (Digitaria ciliaris)
Method in brief: as §2

lambsquarters [14] = experiment: Test Example 5: herbicidal effect by foliage application, plastic box (Table 20, symbol O); type: in vivo, lambsquarters (Chenopodium album); conditions: foliage application, 320 g/ha
Method in brief: as §1

redroot pigweed [15] = experiment: Test Example 5: herbicidal effect by foliage application, plastic box (Table 20, symbol N); type: in vivo, redroot pigweed (Amaranthus retroflexus); conditions: foliage application, 320 g/ha, evaluated 3 weeks after application
Method in brief: as §1

green foxtail [16] = experiment: Test Example 5: herbicidal effect by foliage application, plastic box (Table 20, symbol G); type: in vivo, green foxtail (Setaria viridis); conditions: foliage application, 320 g/ha
Method in brief: as §1

barnyard grass [17] = experiment: Test Example 5: herbicidal effect by foliage application, plastic box (Table 20, symbol H); type: in vivo, barnyard grass (Echinochloa crus-galli); conditions: foliage application, 320 g/ha
Method in brief: as §1

wild oat [18] = experiment: Test Example 4: herbicidal effect by soil treatment (Table 19, symbol I); type: in vivo, wild oat (Avena fatua)
Method in brief: as §2

velvetleaf [19] = experiment: Test Example 5: herbicidal effect by foliage application, plastic box (Table 20, symbol M); type: in vivo, velvetleaf (Abutilon theophrasti); conditions: foliage application, 320 g/ha
Method in brief: as §1

persian speedwell [20] = experiment: Test Example 4: herbicidal effect by soil treatment (Table 19, symbol R); type: in vivo, Persian speedwell (Veronica persica)
Method in brief: as §2

southern crabgrass [21] = experiment: Test Example 5: herbicidal effect by foliage application, plastic box (Table 20, symbol F); type: in vivo, southern crabgrass (Digitaria ciliaris); conditions: foliage application, 320 g/ha
Method in brief: as §1

blackgrass [22] = experiment: Test Example 5: herbicidal effect by foliage application, plastic box (Table 20, symbol J); type: in vivo, blackgrass (Alopecurus myosuroides); conditions: foliage application, 320 g/ha
Method in brief: as §1

barnyard grass [23] = experiment: Test Example 3: herbicidal effect by foliage application, Wagner pot (Table 18, symbol H); type: in vivo, barnyard grass (Echinochloa crus-galli)
Method in brief: as §3

barnyard grass [24] = experiment: Test Example 4: herbicidal effect by soil treatment (Table 19, symbol H); type: in vivo, barnyard grass (Echinochloa crus-galli)
Method in brief: as §2

blackgrass [25] = experiment: Test Example 4: herbicidal effect by soil treatment (Table 19, symbol J); type: in vivo, blackgrass (Alopecurus myosuroides); conditions: AAH 320 g/ha
Method in brief: as §2

[26] = evaluated 3 weeks after application
[27] = amount of applied herbicide 320 g/ha

For `Cc1ccc2oc(-c3ccc(OC(F)F)cc3)c(-c3c(O)c(C)nn(C)c3=O)c2c1` [9-053], which “L (windgrass) herbicidal effect grade” value (windgrass [1]) is on record?
Its value is 3 (Herbicidal rate of 40% or more and less than 70%).

And the “R (persian speedwell) herbicidal effect grade” value (persian speedwell [2]; [26])?
The value was 5 (Herbicidal rate of 90% or more (almost completely withered)).

What about the “P: chickweed, herbicidal effect grade” value (chickweed [3]; [27]) of the same compound?
Its value is 3 (Herbicidal rate of 40% or more and less than 70%).

And the “N: redroot pigweed, herbicidal effect grade” value (redroot pigweed [4]; [27])?
Its value is 5 (Herbicidal rate of 90% or more (almost completely withered)).

And the “Herbicidal effect on E (rice flat sedge), foliage application” value (rice flat sedge; [27])?
Its value is 4 (Herbicidal rate of 70% or more and less than 90%).

And the “L: windgrass, herbicidal effect grade” value (windgrass [5]; [27])?
Its value is 0 (Herbicidal rate of 5% or less (almost no effect)).

And the “M: velvetleaf, herbicidal effect grade” value (velvetleaf [6]; [27])?
Its value is 4 (Herbicidal rate of 70% or more and less than 90%).

And the “Herbicidal effect on D (Chinese sprangletop), foliage application” value (Chinese sprangletop; [27])?
Its value is 0 (Herbicidal rate of 5% or less (almost no effect)).

What about the “I (wild oat) herbicidal effect grade” value (wild oat [7]; [26]) of the same compound?
Its value is 0 (Herbicidal rate of 5% or less (almost no effect)).

What about the “P (chickweed) herbicidal effect grade” value (chickweed [8]) of the same compound?
Its value is 5 (Herbicidal rate of 90% or more (almost completely withered)).

What about the “Q: false cleavers, herbicidal effect grade” value (false cleavers; [27]) of the same compound?
Its value is 0 (Herbicidal rate of 5% or less (almost no effect)).

And the “O: lambsquarters, herbicidal effect grade” value (lambsquarters [9]; [27])?
Its value is 5 (Herbicidal rate of 90% or more (almost completely withered)).

And the “K (Italian ryegrass) herbicidal effect grade” value (Italian ryegrass [10]; [26])?
Its value is 5 (Herbicidal rate of 90% or more (almost completely withered)).

And the “K: Italian ryegrass, herbicidal effect grade” value (Italian ryegrass [11]; [27])?
Its value is 5 (Herbicidal rate of 90% or more (almost completely withered)).

And the “G: green foxtail, herbicidal effect grade” value (green foxtail [12]; [27])?
Its value is 4 (Herbicidal rate of 70% or more and less than 90%).

What about the “F: southern crabgrass, herbicidal effect grade” value (southern crabgrass [13]; [27]) of the same compound?
The value was 2 (Herbicidal rate of 20% or more and less than 40%).

What about the “O (lambsquarters) herbicidal effect grade” value (lambsquarters [14]; [26]) of the same compound?
The value was 5 (Herbicidal rate of 90% or more (almost completely withered)).

And the “N (redroot pigweed) herbicidal effect grade” value (redroot pigweed [15])?
Its value is 5 (Herbicidal rate of 90% or more (almost completely withered)).

And the “G (green foxtail) herbicidal effect grade” value (green foxtail [16]; [26])?
The value was 4 (Herbicidal rate of 70% or more and less than 90%).

What about the “H (barnyard grass) herbicidal effect grade” value (barnyard grass [17]; [26]) of the same compound?
Its value is 3 (Herbicidal rate of 40% or more and less than 70%).

And the “I: wild oat, herbicidal effect grade” value (wild oat [18]; [27])?
The value was 0 (Herbicidal rate of 5% or less (almost no effect)).

And the “M (velvetleaf) herbicidal effect grade” value (velvetleaf [19]; [26])?
The value was 5 (Herbicidal rate of 90% or more (almost completely withered)).

And the “R: persian speedwell, herbicidal effect grade” value (persian speedwell [20]; [27])?
Its value is 4 (Herbicidal rate of 70% or more and less than 90%).

And the “F (southern crabgrass) herbicidal effect grade” value (southern crabgrass [21]; [26])?
The value was 3 (Herbicidal rate of 40% or more and less than 70%).

And the “J (blackgrass) herbicidal effect grade” value (blackgrass [22]; [26])?
Its value is 4 (Herbicidal rate of 70% or more and less than 90%).

What about the “Herbicidal effect on H (barnyard grass), foliage application” value (barnyard grass [23]; [27]) of the same compound?
The value was 4 (Herbicidal rate of 70% or more and less than 90%).

And the “H: barnyard grass, herbicidal effect grade” value (barnyard grass [24]; [27])?
The value was 4 (Herbicidal rate of 70% or more and less than 90%).

Which results are given for `COCCOCc1ccc(-c2sc3ccccc3c2-c2c(O)c(C)nn(C)c2=O)cc1` [1-255]?
effect on persian speedwell (R) (persian speedwell [2]; 3 weeks after application): 5 (Herbicidal rate of 90% or more (almost completely withered)); P: chickweed, herbicidal effect rating (chickweed [3]; AAH 320 g/ha): 4 (Herbicidal rate of 70% or more and less than 90%); N: redroot pigweed, herbicidal effect rating (redroot pigweed [4]; AAH 320 g/ha): 5 (Herbicidal rate of 90% or more (almost completely withered)); herbicidal effect on E (rice flat sedge), rating 0-5 (rice flat sedge; 320 g/ha): 5 (Herbicidal rate of 90% or more (almost completely withered)); L: windgrass, herbicidal effect rating (windgrass [5]; AAH 320 g/ha): 0 (Herbicidal rate of 5% or less (almost no effect)); M: velvetleaf, herbicidal effect rating (velvetleaf [6]; AAH 320 g/ha): 4 (Herbicidal rate of 70% or more and less than 90%); herbicidal effect on D (Chinese sprangletop), rating 0-5 (Chinese sprangletop; 320 g/ha): 3 (Herbicidal rate of 40% or more and less than 70%); J: blackgrass, herbicidal effect rating (blackgrass [25]): 2 (Herbicidal rate of 20% or more and less than 40%); effect on wild oat (I) (wild oat [7]; 3 weeks after application): 0 (Herbicidal rate of 5% or less (almost no effect)); Q: false cleavers, herbicidal effect rating (false cleavers; AAH 320 g/ha): 0 (Herbicidal rate of 5% or less (almost no effect)); O: lambsquarters, herbicidal effect rating (lambsquarters [9]; AAH 320 g/ha): 5 (Herbicidal rate of 90% or more (almost completely withered)); effect on Italian ryegrass (K) (Italian ryegrass [10]; 3 weeks after application): 5 (Herbicidal rate of 90% or more (almost completely withered)); K: Italian ryegrass, herbicidal effect rating (Italian ryegrass [11]; AAH 320 g/ha): 4 (Herbicidal rate of 70% or more and less than 90%); G: green foxtail, herbicidal effect rating (green foxtail [12]; AAH 320 g/ha): 4 (Herbicidal rate of 70% or more and less than 90%); F: southern crabgrass, herbicidal effect rating (southern crabgrass [13]; AAH 320 g/ha): 3 (Herbicidal rate of 40% or more and less than 70%); effect on lambsquarters (O) (lambsquarters [14]; 3 weeks after application): 5 (Herbicidal rate of 90% or more (almost completely withered)); effect on green foxtail (G) (green foxtail [16]; 3 weeks after application): 5 (Herbicidal rate of 90% or more (almost completely withered)); effect on barnyard grass (H) (barnyard grass [17]; 3 weeks after application): 5 (Herbicidal rate of 90% or more (almost completely withered)); I: wild oat, herbicidal effect rating (wild oat [18]; AAH 320 g/ha): 0 (Herbicidal rate of 5% or less (almost no effect)); effect on velvetleaf (M) (velvetleaf [19]; 3 weeks after application): 5 (Herbicidal rate of 90% or more (almost completely withered)); R: persian speedwell, herbicidal effect rating (persian speedwell [20]; AAH 320 g/ha): 5 (Herbicidal rate of 90% or more (almost completely withered)); effect on southern crabgrass (F) (southern crabgrass [21]; 3 weeks after application): 4 (Herbicidal rate of 70% or more and less than 90%); effect on blackgrass (J) (blackgrass [22]; 3 weeks after application): 4 (Herbicidal rate of 70% or more and less than 90%); herbicidal effect on H (barnyard grass), rating 0-5 (barnyard grass [23]; 320 g/ha): 5 (Herbicidal rate of 90% or more (almost completely withered)); H: barnyard grass, herbicidal effect rating (barnyard grass [24]; AAH 320 g/ha): 5 (Herbicidal rate of 90% or more (almost completely withered))
